System: normal human dermal fibroblasts (NHDF)
Test: Gene expression in NHDF, full transcriptome analysis with Affymetrix U219 microarray
Format: cell-based
Conditions: NHDF
Protocol: In the present study, the transcriptional effects (modulation of gene expression) of compounds 1, 2, 3 and 4 were evaluated on normal human dermal fibroblasts (NHDF) under basal conditions.
More specifically, the comparative analysis of the different transcriptomic profiles was performed using an Affymetrix GeneAtlas platform and the human “full transcriptome” U219 chip, which includes 36,000 transcripts and variants.
Fibroblasts were seeded in 24-well plates and cultured in culture medium for 24 hours. The medium was then replaced by assay medium and cells were incubated for further 24 hours. The medium was replaced by assay medium containing or not (control) the test compounds at different concentrations and the cells were preincubated for 24 hours. All experimental conditions were performed in triplicate. At the end of incubation, the culture supernatants were removed and the cells were washed in a phosphate buffered saline (PBS) solution and immediately frozen at −80° C.
Before RNA extraction, the replicates were pooled. Total RNA was extracted from each sample using TriPure Isolation Reagent® according to the supplier's instructions. The amount and quality of total RNA were evaluated for all samples using capillary electrophoresis (Bioanalyzer 2100, Agilent technologies). From each RNA, a labeled and amplified anti-sens RNA (aRNA) was obtained using GeneChip 3′IVT PLUS Kit (Affymetrix). For each labeled and amplified aRNA sample the profiles were evaluated before and after fragmentation using capillary electrophoresis (Bioanalyzer 2100, Agilent technologies). Hybridization of fragmented aRNA onto Affymetrix® U219 chip (36,000 transcripts and variants) was performed in the GeneAtlas™ fluidics Affymetrix® hybridization station for 20 hours at 45° C. U219 chip was analyzed using the GeneAtlas™ Imaging station (Affymetrix®—resolution 2 μm) to generate fluorescence intensity data.
Expression Console and Quality controls: data were normalized with the Expression Console (Affymetrix®) software using RMA algorithm. Then a quality control of the labeling and the hybridization was performed. Hybridization and labeling steps successfully passed the quality controls for these experiments.
Data reduction, Excel file description: once normalized with Expression Console, data were transferred into a Microsoft Excel® file in order to go further into data reduction.
Calculation and tools were added in order to rank and sort data, and finally to support data interpretation. Detection thresholds in terms of fold change were defined and applied on normalized data.
Results are considered and presented or commented per gene (and not probe). A probe set is a collection of probes designed to interrogate a given sequence of a gene. For data interpretation, the most important relative expression value obtained with one probe is considered to be representative of the corresponding gene. The file contains the following data: • Relative expression (RE) for each sample, • Fold change calculation, • Gene information.

N[C@@H](CCCCNCC(F)(F)[C@]1(O)O[C@H](CO)[C@H](O)[C@H](O)[C@H]1O)C(=O)O [Compound 3]
effect of treatment of NHDF on lipid synthesis (transcriptional): up regulation of lipids synthesis, including fatty acids, cholesterol or ceramides
Fold change, ACOT1///ACOT2 (10 mg/ml, 24 h, vs control): 2.02
Fold change, APOD (10 mg/ml, 24 h, vs control): 0.44
Fold change, DHCR7 (10 mg/ml, 24 h, vs control): 2.95
Fold change, FADS2 (10 mg/ml, 24 h, vs control): 2.20
Fold change, GBAP1 (10 mg/ml, 24 h, vs control): 2.45
Fold change, HACD1 (10 mg/ml, 24 h, vs control): 2.63
Fold change, HMGCS1 (10 mg/ml, 24 h, vs control): 2.18
Fold change, LRP8 (10 mg/ml, 24 h, vs control): 2.98
Fold change, MVD (10 mg/ml, 24 h, vs control): 2.80
Fold change, NCOR1 (10 mg/ml, 24 h, vs control): 0.44
Fold change, NEU1 (10 mg/ml, 24 h, vs control): 3.17
Fold change, NPC1 (10 mg/ml, 24 h, vs control): 2.45
Fold change, PHLDB2 (10 mg/ml, 24 h, vs control): 2.14
Fold change, PHYH (10 mg/ml, 24 h, vs control): 2.37
Fold change, PLA2G15 (10 mg/ml, 24 h, vs control): 2.01
Fold change, PLA2G16 (10 mg/ml, 24 h, vs control): 2.30
Fold change, PRKAB2 (10 mg/ml, 24 h, vs control): 0.35
Fold change, PTGDS (10 mg/ml, 24 h, vs control): 2.50
Fold change, SOAT1 (10 mg/ml, 24 h, vs control): 2.08
Fold change, SPHK1 (10 mg/ml, 24 h, vs control): 2.18
Fold change, SREBF1 (10 mg/ml, 24 h, vs control): 2.16
Fold change, TXNRD1 (10 mg/ml, 24 h, vs control): 2.22
Fold change, VAC14 (10 mg/ml, 24 h, vs control): 2.10
Fold change, SCD (10 mg/ml, 24 h, vs control, Affymetrix probe set 11715561_s_at): 4.60
Fold change, SCD (10 mg/ml, 24 h, vs control, Affymetrix probe set 11715562_x_at): 4.82
Fold change, SCD (10 mg/ml, 24 h, vs control, Affymetrix probe set 11715563_s_at): 4.79
Fold change, G6PD (10 mg/ml, 24 h, vs control, Affymetrix probe set 11716292_a_at): 2.00
Fold change, G6PD (10 mg/ml, 24 h, vs control, Affymetrix probe set 11716293_x_at): 2.04
Fold change, INSIG1 (10 mg/ml, 24 h, vs control, Affymetrix probe set 11716338_a_at): 2.36
Fold change, INSIG1 (10 mg/ml, 24 h, vs control, Affymetrix probe set 11716339_a_at): 2.78
Fold change, PPT1 (10 mg/ml, 24 h, vs control, Affymetrix probe set 11716533_a_at): 2.40
Fold change, LSS (10 mg/ml, 24 h, vs control, Affymetrix probe set 11717620_a_at): 2.41
Fold change, EBP (10 mg/ml, 24 h, vs control, Affymetrix probe set 11717859_a_at): 2.52
Fold change, GBA///GBAP1 (10 mg/ml, 24 h, vs control, Affymetrix probe set 11719908_a_at): 2.30
Fold change, GM2A (10 mg/ml, 24 h, vs control, Affymetrix probe set 11719921_s_at): 2.39
Fold change, GM2A (10 mg/ml, 24 h, vs control, Affymetrix probe set 11719923_at): 2.09
Fold change, HSD17B14 (10 mg/ml, 24 h, vs control, Affymetrix probe set 11720588_a_at): 2.17
Fold change, SERINC2 (10 mg/ml, 24 h, vs control, Affymetrix probe set 11721046_a_at): 2.54
Fold change, TPP1 (10 mg/ml, 24 h, vs control, Affymetrix probe set 11725032_a_at): 2.23
Fold change, ME1 (10 mg/ml, 24 h, vs control, Affymetrix probe set 11726265_at): 2.41
Fold change, LSS (10 mg/ml, 24 h, vs control, Affymetrix probe set 11731324_a_at): 3.12
Fold change, GBA///GBAP1 (10 mg/ml, 24 h, vs control, Affymetrix probe set 11736100_a_at): 2.69
Fold change, CHKA (10 mg/ml, 24 h, vs control, Affymetrix probe set 11736285_a_at): 2.53
Fold change, CHKA (10 mg/ml, 24 h, vs control, Affymetrix probe set 11736286_a_at): 2.73
Fold change, ASAH1 (10 mg/ml, 24 h, vs control, Affymetrix probe set 11740582_a_at): 2.18
Fold change, PPT1 (10 mg/ml, 24 h, vs control, Affymetrix probe set 11742107_a_at): 2.25
Fold change, ASAH1 (10 mg/ml, 24 h, vs control, Affymetrix probe set 11743547_a_at): 2.16
Fold change, PCYT2 (10 mg/ml, 24 h, vs control, Affymetrix probe set 11744044_s_at): 2.15
Fold change, FADS1 (10 mg/ml, 24 h, vs control, Affymetrix probe set 11745459_a_at): 3.04
Fold change, LPCAT3 (10 mg/ml, 24 h, vs control, Affymetrix probe set 11746281_a_at): 2.48
Fold change, LDLR (10 mg/ml, 24 h, vs control, Affymetrix probe set 11746974_a_at): 2.37
Fold change, GM2A (10 mg/ml, 24 h, vs control, Affymetrix probe set 11747178_x_at): 2.24
Fold change, PCYT2 (10 mg/ml, 24 h, vs control, Affymetrix probe set 11747322_s_at): 2.72
Fold change, LDLR (10 mg/ml, 24 h, vs control, Affymetrix probe set 11748045_x_at): 2.10
Fold change, SERINC2 (10 mg/ml, 24 h, vs control, Affymetrix probe set 11748053_x_at): 2.92
Fold change, TM7SF2 (10 mg/ml, 24 h, vs control, Affymetrix probe set 11748279_s_at): 2.25
Fold change, GBA///GBAP1 (10 mg/ml, 24 h, vs control, Affymetrix probe set 11748292_a_at): 2.58
Fold change, TPP1 (10 mg/ml, 24 h, vs control, Affymetrix probe set 11748341_a_at): 2.60
Fold change, TPP1 (10 mg/ml, 24 h, vs control, Affymetrix probe set 11748342_x_at): 2.34
Fold change, EBP (10 mg/ml, 24 h, vs control, Affymetrix probe set 11749332_x_at): 2.48
Fold change, ABHD4 (10 mg/ml, 24 h, vs control, Affymetrix probe set 11749343_a_at): 2.28
Fold change, ABHD4 (10 mg/ml, 24 h, vs control, Affymetrix probe set 11749376_a_at): 2.13
Fold change, ME1 (10 mg/ml, 24 h, vs control, Affymetrix probe set 11750913_a_at): 2.67
Fold change, GBA (10 mg/ml, 24 h, vs control, Affymetrix probe set 11750975_x_at): 2.34
Fold change, GBA///GBAP1 (10 mg/ml, 24 h, vs control, Affymetrix probe set 11751085_a_at): 2.84
Fold change, GBA (10 mg/ml, 24 h, vs control, Affymetrix probe set 11751086_x_at): 2.57
Fold change, GBA///GBAP1 (10 mg/ml, 24 h, vs control, Affymetrix probe set 11751098_a_at): 2.57
Fold change, DHCR24 (10 mg/ml, 24 h, vs control, Affymetrix probe set 11751337_a_at): 2.29
Fold change, DHCR24 (10 mg/ml, 24 h, vs control, Affymetrix probe set 11751338_x_at): 2.44
Fold change, G6PD (10 mg/ml, 24 h, vs control, Affymetrix probe set 11752486_a_at): 3.18

— patent US20220267380A1, “Glycopeptides Increasing Lipid Synthesis” (TFCHEM, priority 2019, published 2022)
